# In publication PMC10726367 (Journal of Medicinal Chemistry, 2023):
# What was measured:
# RyR2 = molecular target: T1, RyR2 (Mus musculus, UniProt E9Q401); test: Time-lapse [Ca2+]ER assay (RyR2 R-CEPIA1er assay) in HEK-293 cells with inducible WT RyR2; format: cell-based; conditions: for effect on [Ca2+]ER / R-CEPIA1er fluorescence (F/F0): 25 μM, vs 0.1 v/v% DMSO
# T1 construct: expressed in transfected cells; host or cells: HEK-293 cells stably expressing R-CEPIA1er with doxycycline-inducible WT RyR2
# From the text: To assess the functional potency of novel agents for modulating RyR2 channel activity, we measured changes in Ca^2+ levels in ER of HEK-293 cells with inducible expression of wild-type RyR2 (WT RyR2).[33],[34] Because the expression of WT RyR2 introduces an additional spontaneous Ca^2+ leak from the ER, these cells are suitable for our purpose of testing potential RyR2 stabilizers.[35] The cells additionally stably express the Ca^2+ fluorescence indicator R-CEPIA1er, which is a genetically encoded sensor protein of Ca^2+ in the ER (the cell line was a gift from T. Murayama, Department of Pharmacology, Juntendo University School of Medicine, Tokyo, Japan).[36]
# The addition of these compounds, which are known to inhibit excessive cardiac RyR2 activity, should reduce Ca^2+ leak from the ER, thus increasing the R-CEPIA1er fluorescence.
# The fluorescence plate reader [Ca^2+]ER assay was performed according to the slightly modified protocol of Murayama and Kurebayashi.[36] […] After the cells were inducted with doxycycline for 24 h, changes in ER calcium concentrations [Ca^2+]ER were measured on a multiwell plate reader TECAN Spark 20 M at 37 °C. The 1000 × stock solutions of the test compounds were prepared in DMSO. Briefly, the culture medium was removed and 100 μL of Tyrode’s solution containing 2 mM CaCl2 was added to the cells. The time courses were recorded in each well. Fluorescence was evoked by a 560 nm excitation wavelength and collected in a bottom-read mode at 610 nm. Data was recorded every 10 s, exposure −20 flashes, excitation bandwidth −20 nm, emission bandwidth −20 nm. 100 μL of 0–100 μM solution of test compound in Tyrode’s solution containing 2 mM CaCl2 was injected in each well (speed 100 μL/s) at the 90 s time point. […] The 0.1 v/v% DMSO and 2 mM CaCl2 Tyrode’s solution was used as a control.
# The dose–response curves were calculated using the software package GraphPad Prism version 8.3.1. (GraphPad Software, Inc.). All data are presented as mean ± SD in three independent experiments. Y = bottom + (top – bottom)/(1 + 10^((LogEC50 – X) × HillSlope)) was used, where HillSlope describes the steepness of the curve, and top and bottom are plateaus in the units of the Y-axis.
# SERCA2a = molecular target: T2, SERCA2a (Mus musculus, UniProt O55143); test: Caffeine-induced Ca2+ release assay in HL-1 cells (FLIPR Calcium 6); format: cell-based; conditions: HL-1 cells, 2 h incubation at various concentrations, 10 mM caffeine
# T2 construct: host or cells: HL-1 cells
# T2 sequence (O55143 1-998 isoform O55143-2): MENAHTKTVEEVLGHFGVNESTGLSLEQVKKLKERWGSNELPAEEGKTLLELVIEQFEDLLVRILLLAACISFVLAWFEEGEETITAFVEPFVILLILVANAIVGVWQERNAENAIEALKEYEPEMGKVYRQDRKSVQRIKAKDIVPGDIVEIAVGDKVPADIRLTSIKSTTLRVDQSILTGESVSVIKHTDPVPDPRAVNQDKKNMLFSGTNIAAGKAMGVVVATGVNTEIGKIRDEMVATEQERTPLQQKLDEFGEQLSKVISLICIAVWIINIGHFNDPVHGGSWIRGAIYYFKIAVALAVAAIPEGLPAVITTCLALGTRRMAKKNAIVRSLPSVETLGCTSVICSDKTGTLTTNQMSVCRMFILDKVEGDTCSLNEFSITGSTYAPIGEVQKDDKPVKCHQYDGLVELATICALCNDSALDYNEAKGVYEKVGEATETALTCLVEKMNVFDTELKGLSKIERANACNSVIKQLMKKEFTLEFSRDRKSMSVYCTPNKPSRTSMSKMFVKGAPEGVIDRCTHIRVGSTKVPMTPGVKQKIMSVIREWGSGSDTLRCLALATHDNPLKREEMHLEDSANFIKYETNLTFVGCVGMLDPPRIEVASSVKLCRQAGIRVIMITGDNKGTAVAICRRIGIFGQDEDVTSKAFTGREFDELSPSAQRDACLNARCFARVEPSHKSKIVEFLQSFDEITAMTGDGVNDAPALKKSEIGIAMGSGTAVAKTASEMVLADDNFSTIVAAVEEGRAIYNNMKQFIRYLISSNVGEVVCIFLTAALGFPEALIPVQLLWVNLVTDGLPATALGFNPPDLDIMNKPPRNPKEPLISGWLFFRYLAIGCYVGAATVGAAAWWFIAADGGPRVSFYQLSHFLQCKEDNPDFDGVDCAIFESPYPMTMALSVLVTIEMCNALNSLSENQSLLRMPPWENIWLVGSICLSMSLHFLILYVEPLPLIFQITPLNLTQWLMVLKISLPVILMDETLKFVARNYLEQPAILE
# From the text: It is known that caffeine stimulates the release of calcium from intracellular stores in cells by acting as a RyR activator.[39],[40] The binding site for caffeine is located on the cytosolic side of the protein between the C-terminal and the S2S3 domain.[41] When caffeine binds to RyR2, it interacts with specific amino acids on the protein, which causes conformational changes in the protein’s structure.[42] This opens the RyR2 channel pore, enabling the mass release of calcium ions from the SR. We investigated the effect of caffeine-induced Ca^2+ release in HL-1 cells treated with cytosolic Ca^2+ indicator FLIPR Calcium 6 (Molecular Devices). The HL-1 cell line is an immortalized mouse cardiomyocyte cell line commonly used to study the effects of various substances on cell function.[43] If the tested compound modulates SERCA2a activation, it will cause an increase in Ca^2+ concentration in the SR and the effect of a fixed dose of caffeine on SR Ca^2+ release will be potentiated by increasing doses of a proposed SERCA activator.[26] As a positive control, we used CDN1163, a small-molecule SERCA activator, which is at present in a clinical trial due to its potential therapeutic use for certain cardiac conditions.[27]
# HL-1 cells (50,000 per well) were cultivated for 24 h in black-walled, clear-bottom 96-well microplates (Corning, Amsterdam, The Netherlands) covered with fibronectin/gelatin (Merck KGaA, Darmstadt, Germany) in a humidified incubator at 37 °C and 5% CO2.
# Changes in Ca^2+ concentration were measured on a multiwell plate reader TECAN Spark 20 M using a FLIPR 6 Calcium Assay Kit from Molecular Devices (Molecular Devices LLC, München, Germany) at 37 °C. The 1000 × stock solutions of the test compounds were prepared in DMSO. A 100 μL solution of test compound in Tyrode’s solution containing FLIPR Calcium 6 dye was incubated for 2 h at 37 °C and 5% CO2 in a humidified incubator. The time courses were recorded in each well. Fluorescence was evoked at 485 nm excitation wavelength and read out in a bottom-read mode at 525 nm. Data were recorded every 2 s, exposure −20 flashes, excitation bandwidth −10 nm, emission bandwidth −15 nm. To initiate Ca^2+ influx, 25 μL of 50 mM caffeine solution in Tyrode’s solution containing 2 mM CaCl2 was injected in each well (speed 100 μL/s) at the 10 s time point, resulting in 10 mM final concentration in the well. The differences between the caffeine-induced peak minus basal fluorescence, ΔFCaff, were taken into account for the analysis. The Tyrode’s solution +0.1 v/v% DMSO was used as a control. The dose–response curves were calculated using the software package GraphPad Prism version 8.3.1. All data are presented as mean ± SD from eight independent experiments. Y = bottom + (top – bottom)/(1 + 10^((LogEC50 – X) × HillSlope)) was used, where HillSlope describes the steepness of the curve and top and bottom are plateaus in the units of the Y axis.
# [1] = Membrane permeability, PermeaPad Plate (cell-free transport model); format: in vitro ADME; conditions: for Pe: 24 h, room temperature; for Pe class (low/medium/high; poor): class word printed beside Pe, no key given
# Procedure: Membrane permeability was assessed using PermeaPad Plate according to the manufacturing procedure (innoME GmbH, Espelkamp, Germany). Briefly, 200 μL of water was added into the acceptor plate. 200 μL of 100–500 μM test compound in water was added directly to the well membranes of the donor plate. The donor plate contains a biomimetic membrane for simulating passive mass transfer through different barriers in the body. Then, the donor plate was placed into the acceptor plate wells and incubated at room temperature for 24 h in the dark. To determine the peak absorbance of test compounds, absorbance spectra of acceptor solutions and initial solutions for each test compound were read out. The permeability rate (Pe) was calculated using the formula:
# [drawing 1] , where ODA is the absorbance of acceptor solution and ODE is the absorbance of the standard solution; if the compound is able to permeabilize the membrane and fully reach equilibrium, 250 μM will be the final concentration of solution in the donor and acceptor wells. The coefficient C was calculated using the formula:
# [drawing 2] , where VA is the acceptor volume (cm^3), VD is the donor volume (cm^3), the membrane area is 0.24 cm^2, and the time is 86,400 s.
# [2] = CytoTox-Glo Cytotoxicity Assay; format: cell-based; conditions: mouse; HL-1 cells, 100 μM solutions, 24 h incubation
# Procedure: Cell viability was assessed using the CytoTox-Glo Cytotoxicity Assay according to the manufacturing procedure (Promega GmbH). Briefly, HL-1 cells were cultivated for 24 h in black-walled, clear-bottom 96-well microplates (Corning) covered with fibronectin in DMEM, containing different concentrations of the tested compound (10,000 cells/well). Luminescence of a luminogenic peptide substrate was measured before and after the addition of the lysis reagent (digitonin). The viable cell contribution was determined by a subtractive method. 0.1% DMSO-treated cells were taken as a control.
"RyR2 effect class (RyR2; 25 μM (S107 1 mM per Figure 2), HEK-293 RyR2 R-CEPIA1er cells)",effect on [Ca2+]ER / R-CEPIA1er fluorescence (F/F0) (RyR2),Pe [1],Pe class (low/medium/high; poor) [1],SMILES,effect on caffeine-induced Ca2+ release (in words) (SERCA2a),"viability at 24 h, 100 μM [2]"
+++,increase in R-CEPIA1er fluorescence,1.0 10^–6 cm/s,poor permeability and low,"COc1ccc2c(c1)CN(C(=O)C(=O)O)CCS2 [S36, reference compound]",no concentration-dependent effect,94%
–,–,–,–,"Cc1ccc2cccc(NC(=O)c3ccc(OC(C)C)cc3)c2n1 [CDN1163, reference compound]",clear dependence of the magnitude of the caffeine effect from the concentration of CDN1163,–
–,increase in R-CEPIA1er fluorescence,–,–,"O=C1CN(/N=C/c2ccc(-c3ccc([N+](=O)[O-])cc3)o2)C(=O)N1 [dantrolene, reference compound]",–,–
–,–,1.2 10^–6 cm/s,medium,"COc1ccc2c(c1)CN(C)CCS2 [S107, 4-methyl-7-methoxy-2,3,4,5-tetrahydro-1,4-benzothiazepine, reference compound]",did not show any effects on SR Ca^2+ content,98%
